Measurements: paper PMC9085577, “Discovery of a Potent and Orally Active Dual GPBAR1/CysLT1R Modulator for the Treatment of Metabolic Fatty Liver Disease” (Frontiers in Pharmacology, 2022)
Values after ≈ are worked out from the molar mass of the structure shown.

Assays:
[1] = molecular target: T1, human GPBAR1 (Homo sapiens, UniProt Q8TDU6); assay: GPBAR1 CRE-luciferase reporter transactivation assay in HEK-293T cells; type: cell-based; conditions: HEK293T cells
T1 construct: expressed in transfected cells; host or cells: HEK-293T cells, transient transfection (Fugene HD)
T1 sequence (Q8TDU6 1-330): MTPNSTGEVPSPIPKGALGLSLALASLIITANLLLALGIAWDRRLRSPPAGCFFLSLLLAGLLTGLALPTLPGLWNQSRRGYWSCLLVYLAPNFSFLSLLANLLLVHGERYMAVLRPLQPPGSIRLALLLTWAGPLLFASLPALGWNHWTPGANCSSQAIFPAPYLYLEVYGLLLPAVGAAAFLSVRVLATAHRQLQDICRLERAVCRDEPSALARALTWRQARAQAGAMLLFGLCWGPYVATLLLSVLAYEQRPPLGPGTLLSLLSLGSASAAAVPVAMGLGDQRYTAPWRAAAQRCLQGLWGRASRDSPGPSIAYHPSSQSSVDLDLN
Protocol: GPBAR1. […] At 18 h post stimulations, cellular lysates were assayed for luciferase and Renilla activities using the Dual-Luciferase Reporter assay system (E1980, Promega Madison WI). Luminescence was measured using Glomax 20/20 luminometer (Promega, Madison WI). Luciferase activities were normalized with Renilla activities.
Agonistic activities of compounds on GPBAR1 were compared to TLCA, which was set as 100%.

[2] = Aqueous solubility in PBS pH 7.4 by LC-MS/MS; type: physicochemical
Protocol: Solubility. Ten microliters of a 10 mM solution of tested compounds were diluted either in 490 µL of PBS pH 7.4 or MeOH and agitated for 24 h at 250 rpm. The obtained solutions were first centrifuged for 5 min at 4,000 rpm and then further diluted adding 10 μL of each sample to 490 µL of MeOH. Samples were analyzed by LC-MS/MS and the ratio of mass signal area obtained in PBS and in organic solvent was then measured and used to determine solubility.

**Q.** Which EC50 ([1]; CRE luciferase) does the source give for `O=C(O)c1cccc(-c2ccc(OCc3ccc4ccccc4n3)cc2)c1` [Compound 2, 4'-(quinolin-2-ylmethoxy)-[1,1′-biphenyl]-3-carboxylic acid] here?
**A.** 4.6 ± 1.5 µM

**Q.** And the Emax ([1]; HEK-293T, compound 10 µM relative to TLCA (10 μM) as 100, CRE transactivation, read-out: GPBAR1 Eff (%) maximum efficacy)?
**A.** 82 ± 1.2%

**Q.** What about the Solubility [2] of the same compound?
**A.** good

**Q.** What about the solubility at 24 h ([2]; PBS pH 7.4) of the same compound?
**A.** 66 µM (≈ 23.5 µg/mL)
